Values of other authors as cited in patent publication US20210322558A1, “PHENYLEPHRINE RESINATE PARTICLES AND USE THEREOF IN PHARMACEUTICAL FORMULATIONS” (JOHNSON & JOHNSON CONSUMER INC., priority 2013, published 2021).

Legend:
[1] = 30 mg dose administered orally over eight hours

Row | SMILES | fraction of a therapeutic dose excreted unchanged in the urine | metabolized to m-hydroxy-phenylglycol-sulfate, % of the dose [1] | metabolized to m-hydroxymandelic acid, % of the dose [1] | metabolized to phenylephrine-glucuronide, % of the dose [1] | metabolized to phenylephrine-sulfate, % of the dose [1]
1 | CC(=O)Nc1ccc(O)cc1 [acetaminophen] | Less than 9% |  |  |  | 
2 | CNC[C@H](O)c1cccc(O)c1.Cl [phenylephrine, (R)-1-(3-hydroxyphenyl)-2-methylaminoethanol] |  | 6% | 30% | 12% | 47%
